This note sets out measurements from US7160684B2, “Methods of selecting compounds for modulation of bladder function” (Wyeth, priority 2000, dated 2007).

Experiment [1] has as its system isolated rat bladder strips. In words: Isolated rat bladder strip contraction. The conditions noted are these: strips precontracted with 20 mM KCl; for antagonism of the effects of retigabine on bladder strip contractions: 10 μM antagonist. As for the experimental part:
Male Sprague-Dawley rats (200–400 grams) are euthanized by CO2 inhalation and exsanguination. Their urinary bladders are rapidly removed and placed in […] physiological salt solution (PSS) that contained the following (mM): NaCl (118.4), KCl (5), CaCl2 (2.5), MgSO4 (1.2), KH2PO4 (1.2), NaHCO3 (24.9) and D-glucose (11.1) gassed with O2/CO2 (95% /5%) to achieve a pH of 7.4. The dome of the bladder is isolated from the trigon region and this tissue is then cut into 4–5 mm wide by 10 mm long strips. One end is secured to the bottom of a water jacketed tissue bath and the other to a GRASS isometric force transducer (Grass Instruments, Quincy, Mass.). Tissues are pretensioned (0.25 to 0.5 grams), and after 30 minutes of equilibration are contracted with an additional 15 mM KCl (total of 20 mM) and again allowed to equilibrate until the preparations are contracting steadily. Any of a variety of compounds are administered directly into the tissue baths as sequential concentrations. Transducer signals are digitized (12 bit resolution) and analyzed on-line using a 586-based computer and custom software. The area under the contraction curve (AUC) is used as a measure of contractility since the spontaneous bladder contractions are irregular in amplitude and frequency. A 5-minute AUC value is taken 30 minutes after administration of each compound concentration to the tissue bath.
We isolated rat bladder strips from male Sprague-Dawley rats as previously described, (Wojdan, A., Freeden, C., Woods, M., Oshiro, G., Spinelli, W. et al., J Pharmacol Exp Therap 289: 1410–1418 (1999)) and precontracted them with 20 mM KCl. The KCNQ channel agonist retigabine, was added to the tissue bath in increasing concentrations, and area under the contraction curve was analyzed.
In another study, isolated rat bladder strips were precontracted with 60 mM KCl (FIG. 1).
The difference in IC50s between 20 and 60 mM KCl depolarizations are consistent with a potassium channel opening mechanism.
Rat bladder strips were isolated and prepared as previously described (Wojdan, A., Freeden, C., Woods, M., Oshiro, G., Spinelli, W. et al., J Pharmacol ExpTherap 289:1410–1418 (1999)). Preparations were contracted with either 20 or 60 mM KCl, or 200 nM carbachol. A five minute area under the contraction curve was acquired 20 minutes after addition of each concentration of retigabine using a 12 bit D/A and a 586 based personal computer running custom software. Message for KCNQ subunits was probed using quantitative rtPCR on an ABI PRISM 7700 Sequence Detection System (TAQMAN). Forward and reverse primers and TAQMAN probes were designed using published RNA sequences for human KCNQ1–5 and rat KCNQ 1–4 listed within the NCBI data base. Since no rat sequence for KCNQ5 were currently published, probes and primers were designed by BLAST analysis of rat Expressed Sequence Tags (EST) using the known mouse KNCQ5 sequence. From homologous EST sequences, a contiguous sequence of 384 base pairs was constructed. Probes and primers were designed against this sequence. BLAST analysis of our rat KCNQ5 probes and primer were selective for mouse and human KCNQ5 sequences. PCR products were confirmed by gel electrophoresis (data not shown). Cells for electrophysiology were prepared from rat bladder smooth muscle as previously described (Wojdan et al., 1999). Human bladder smooth muscle cells were obtained from Clonetics, San Diego, Calif. […]

For experiment [2], the system named is isolated rat bladder smooth muscle cell. As to the kind of experiment: Voltage clamp recording of outward current, rat cells. Format: cell-based. The source says: (§1) Rat detrusor cells are isolated in a manner previously described for guinea-pig detrusor (Sheldon J H, Norton N W and Argentieri T M (1997) Inhibition of guinea pig detrusor contraction by NS-1619 is associated with activation of BKCa and inhibition of calcium currents. J Pharmacol Exp Thera 283(3): 1193–1200). Male Sprague-Dawley rats (Charles River, Wilmington, Mass.; 200–400 grams) are euthanized by CO2 inhalation and exsanguination. Their urinary bladders are rapidly removed and placed in 37° C. physiological solution with the following composition (mM): Na glutamate (80.0), NaCl (54.7), KCl (5.0), NaHCO3 (25.0), MgCl2.2H2O (2.5), D-glucose (11.8) and CaCl2 (0.2) gassed with O2—CO2, 95%/5% for a final pH of 7.4. The dome of the bladder is isolated from the trigone region and the mucosa is removed. This tissue is then cut into 2–3 mm wide strips and placed into fresh buffer for 1 hour. Tissues are then transferred into 10 ml of an isolation buffer containing the above composition plus collagenase type VIII (1.0 mg/ml) and pronase (0.25 mg/ml). After 10 minutes the isolation buffer is replaced with fresh isolation buffer for an additional 10 min. The tissue is then washed 3 times in fresh collagenase and pronase free solution and stored at room temperature until studied. Cells for study are prepared by triturating 1–2 pieces of detrusor tissue in 2 ml of fresh isolation buffer for 5 minutes with a polished Pasteur pipette, (tip diameter ˜1.5 mm) attached to a modified Harvard Respirator pump (Harvard Apparatus, Southnatic, Mass.) at a rate of 20×/min. with an approximate volume of 5 ml. Cells are then placed on a microscope stage in a temperature regulated tissue bath at 32.5° C. and continually superfused with PSS.
(§2) Single cell recordings are performed with a List-Medical EPC-7 patch clamp amplifier (Adams & List Assoc., Westbury, N.Y.). Pipette electrodes had tip resistances of 2–4 MΩ and are filled with the following composition (mM): KCl (126.0), MgCl2.6H2O (4.5), ATP Mg salt (4.0), GTP tris salt (0.3), creatine PO4 (14.0), D-glucose (9.0), EGTA (9.0), HEPES (9.0). The pH is adjusted to 7.4 with KOH. Signals are acquired (3 kHz high frequency cut-off, 12 bit resolution) using a 586-based personal computer.
Whole cell recordings are made using broken patch access. Currents are evoked using either voltage steps (Vh=−50; Vt=−60 to 40 mV) or voltage ramps (−60 to 40 mV at 3.3 mV/sec.). The exact voltage clamp protocols are well known in the art. After stability is achieved control currents are recorded. Next, test compound is added to the superfusate. Currents are recorded for 5 to 10 minutes or until compound effects reach steady state. This is followed either by washout or addition of antagonists (linopirdine, XE-991) to the superfusate. […]

For experiment [3] the test system is unchanged. In words: Current clamp recording of resting membrane potential, rat cells. Format: cell-based.
Text: as §1, §2
Cell resting membrane potential (RMP) is measured in current clamp using the above mentioned instrumentation and pipette solutions. For these experiments nystatin is also added to the pipette solution (100 μg/ml) to allow recording through utilization of the perforated patch technique (Korn, et al, 1991). […] After this time, various antagonists (linopirdine, XE-991) are added to the perfusate and RMP is recorded for an additional 5 minutes. […]

In experiment [4] the test system is cultured human bladder smooth muscle cells. As to the kind of experiment: Voltage clamp recording of outward current, human cells. It counts as cell-based. The conditions noted are these: XE-991 (10 μM in FIG. 3d). How it is done: as §2
Whole cell recordings are made using broken patch access. Currents are evoked using either voltage steps (Vh=−50; Vt=−60 to 40 mV) or voltage ramps (−60 to 40 mV at 3.3 mV/sec.). The exact voltage clamp protocols are well known in the art. After stability is achieved control currents are recorded. Next, test compound is added to the superfusate. Currents are recorded for 5 to 10 minutes or until compound effects reach steady state. This is followed either by washout or addition of antagonists (linopirdine, XE-991) to the superfusate.
Cellular electrophysiological studies were conducted using both voltage and current clamp techniques (Hammill, O., P., Marty, A., Neher, E., Sakmann, B. & Sigworth, F. J.: Improved patch-clamp techniques for high-resolution current recordings from cells and cell-free membrane patches. Pflugers Arch 391: 85–100 (1981)) from Sprague-Dawley rat (200–400 grams) bladders as previously described, (Wojdan, A., Freeden, C., Woods, M., Oshiro, G., Spinelli, W. et al., J. Pharmacol Exp Therap 289: 1410–1418 (1999)) and from a human bladder, primary cell culture (Colnetics, San Diego, Calif.). In rat cells, the average, control resting membrane potential (RMP) was −29.0±4.5 mV. […]
Rat bladder strips were isolated and prepared as previously described (Wojdan, A., Freeden, C., Woods, M., Oshiro, G., Spinelli, W. et al., J Pharmacol ExpTherap 289:1410–1418 (1999)). […] Message for KCNQ subunits was probed using quantitative rtPCR on an ABI PRISM 7700 Sequence Detection System (TAQMAN). […]

In the case of `O=C1N(c2ccccc2)c2ccccc2C1(Cc1ccncc1)Cc1ccncc1` [linopirdine], in experiment [1], the “antagonism of the effects of retigabine on bladder strip contractions” value stood at 94.8±17.5%. In experiment [2] (linopirdine 50 μM), the “reversal of retigabine-induced increase in outward current” value is “partially reversed”.
With `COc1ccc(Cl)cc1C(=O)NCCc1ccc(S(=O)(=O)NC(=O)NC2CCCCC2)cc1` [glyburide], the “reversal of the effects of retigabine on bladder strip contractions” value in experiment [1] (glyburide 10 μM) is on record as “not reversed”.
“iberiotoxin (QFTDVDCSVSKECWSVCKDLFGVDRGKCMGKKCRCYQ; UniProt P24663 1-37, looked up)”: in experiment [2] (100 nM iberiotoxin), the “sensitivity of retigabine-induced increase in outward current to blocker” value was “not sensitive”.
Regarding `O=C1c2ccccc2C(Cc2ccncc2)(Cc2ccncc2)c2ccccc21` [XE-991, 10,10-bis(4-pyridinylmethyl)-9(10H)-anthracenone], in experiment [1], the “antagonism of the effects of retigabine on bladder strip contractions” value was found to be 94.8±17.5%. In addition, the “reversal of retigabine-induced hyperpolarization” value in experiment [3] (10 μM XE-991 after 10 μM retigabine) was “completely reversed”. Also, the “effect on membrane potential relative to initial RMP” value in experiment [3] (10 μM XE-991 after retigabine) was “depolarized the cell below its initial RMP”. Further, the “reversal of retigabine-induced increase in outward current” value in experiment [2] (XE-991 10 μM) is on record as “partially reversed”. The “reversal of retigabine-induced changes (hyperpolarization, outward current)” value in experiment [4] is listed as “partially reversed”.
